Converted amounts (≈) assume the structure as drawn. “And” between values parts separate entries of the source, which are not always exact repeats. Equal entries are not always repeated. Where two headings read alike, the source gives them in different places.
What was measured:
in vitro = assay type: cell-based, murine; details: mouse
Procedure: A549 human pulmonary epithelial cells (KCLB 10185), human embryonic kidney (HEK) 293 cells (KCLB 21573), human THP-1 leukemia cells (KCLB 40202), human neuroblastoma SH-SY5Y cells (KCLB 22266), Murine Raw 264.7 macrophages (KCLB 40071), and L929 murine fibroblasts (KCLB 10001) were purchased from the KCLB (Seoul, Korea). Cytotoxicity testing was performed using the MTT assay and the WST-1 cell viability assay as previously described.

M. tuberculosis H37Rv [1] = assay type: cell-based, Mycobacterium tuberculosis; details: for RFU/200 μl (replicates1-3), single values / RFU/ml (×104) / RFU/200 μl (average): Fig 2A
XDR M. tuberculosis = assay type: cell-based, Mycobacterium tuberculosis
M. tuberculosis H37Rv [2] = assay: Luminescence-based microbial cell viability assay; set-up: species or system Mycobacterium tuberculosis; details: for RLU/50ul (replicates1-3), single values / RLU/ml (×100) / RLU/50ul (average): Fig 2C
M. tuberculosis H37Rv [3] = assay type: in vivo, BALB/c mice
M. tuberculosis H37Rv [4] = assay type: in vivo, BALB/c mice; set-up: Efficacy in BALB/C mouse model of pulmonary tuberculosis, Average / Efficacy in BALB/C mouse model of pulmonary tuberculosis, values of mice 1-6: unit not given here; details: Fig 4C, group dose 30, 6 mice
M. tuberculosis H37Ra = assay: microbe, parasite or virus in culture; assay type: cell-based, Mycobacterium tuberculosis; details: Mycobacterium tuberculosis, H37RA
[5] = drug conc. 0.19, average of each replicate set
[6] = drug conc. 0.39, average of each replicate set
[7] = drug conc. 0.78, average of each replicate set

Compound: CO[C@H]1/C=C/O[C@@]2(C)Oc3c(C)c(O)c4c(O)c(c(/C=N/N5CCN(C)CC5)c(O)c4c3C2=O)NC(=O)/C(C)=C\C=C\[C@H](C)[C@H](O)[C@@H](C)[C@@H](O)[C@@H](C)[C@H](OC(C)=O)[C@@H]1C [RIF, rifampicin, reference compound]
- CC50 (in vitro; L929): > 500 µg/mL
- CC50 (in vitro; Raw264.7): > 500 µg/mL

Compound: NNC(=O)c1ccncc1 [INH, isoniazid, reference compound]
- RFU/200 μl (replicates1-3), single values (M. tuberculosis H37Rv [1]; drug conc. 0.19): 54850 RFU/200 μl and 54780 RFU/200 μl and 48860 RFU/200 μl and 48850 RFU/200 μl and 51920 RFU/200 μl and 53630 RFU/200 μl and 53710 RFU/200 μl and 53510 RFU/200 μl and 54820 RFU/200 μl
- RFU/ml (×104) (M. tuberculosis H37Rv [1]; drug conc. 0.19): 26.4 RFU/ml (×104)
- RFU/200 μl (average) (M. tuberculosis H37Rv [1]; [5]): 49877 RFU/200 μl and 53617 RFU/200 μl and 54817 RFU/200 μl
- RFU/200 μl (replicates1-3), single values (M. tuberculosis H37Rv [1]; drug conc. 0.39): 12610 RFU/200 μl and 12620 RFU/200 μl and 10050 RFU/200 μl and 11010 RFU/200 μl and 12080 RFU/200 μl and 10560 RFU/200 μl and 10740 RFU/200 μl and 10520 RFU/200 μl and 12650 RFU/200 μl
- RFU/ml (×104) (M. tuberculosis H37Rv [1]; drug conc. 0.39): 5.7 RFU/ml (×104)
- RFU/200 μl (average) (M. tuberculosis H37Rv [1]; [6]): 11047 RFU/200 μl and 10607 RFU/200 μl and 12627 RFU/200 μl
- RFU/200 μl (replicates1-3), single values (M. tuberculosis H37Rv [1]; drug conc. 0.78): 7570 RFU/200 μl and 7470 RFU/200 μl and 7230 RFU/200 μl and 7160 RFU/200 μl and 7680 RFU/200 μl and 7340 RFU/200 μl and 7150 RFU/200 μl and 7460 RFU/200 μl and 7540 RFU/200 μl
- RFU/ml (×104) (M. tuberculosis H37Rv [1]; drug conc. 0.78): 3.7 RFU/ml (×104)
- RFU/200 μl (average) (M. tuberculosis H37Rv [1]; [7]): 7357 RFU/200 μl and 7317 RFU/200 μl and 7527 RFU/200 μl
- concentration with significant antitubercular effect (M. tuberculosis H37Rv [1]; fluorescence-based assay): 0.78 µg/mL and 0.39 µg/mL
- RFU/200 μl (replicates1-3), single values (XDR M. tuberculosis): 29490 RFU/200 μl and 29760 RFU/200 μl and 24060 RFU/200 μl and 22090 RFU/200 μl and 22930 RFU/200 μl and 29240 RFU/200 μl and 29310 RFU/200 μl and 29280 RFU/200 μl and 29510 RFU/200 μl and 51780 RFU/200 μl and 52060 RFU/200 μl and 51260 RFU/200 μl and 49980 RFU/200 μl and 50610 RFU/200 μl and 51510 RFU/200 μl and 51660 RFU/200 μl and 51460 RFU/200 μl and 51820 RFU/200 μl and 56880 RFU/200 μl and 57100 RFU/200 μl and 53750 RFU/200 μl and 53730 RFU/200 μl and 46980 RFU/200 μl and 53520 RFU/200 μl and 53690 RFU/200 μl and 53460 RFU/200 μl and 56940 RFU/200 μl
- RFU/ml (×104) (XDR M. tuberculosis): 13.6 RFU/ml (×104) and 25.7 RFU/ml (×104) and 27.0 RFU/ml (×104)
- antitubercular effect (XDR M. tuberculosis): did not show a significant antitubercular effect
- RLU/50ul (replicates1-3), single values (M. tuberculosis H37Rv [2]; drug conc. 0.19): 1310 RLU/50ul and 1170 RLU/50ul and 1890 RLU/50ul and 1990 RLU/50ul and 2130 RLU/50ul and 1740 RLU/50ul and 1790 RLU/50ul and 1620 RLU/50ul and 1290 RLU/50ul
- RLU/ml (×100) (M. tuberculosis H37Rv [2]; drug conc. 0.19): 331.8 RLU/ml (×100)
- RLU/50ul (average) (M. tuberculosis H37Rv [2]; [5]): 2003 RLU/50ul and 1717 RLU/50ul and 1257 RLU/50ul
- RLU/50ul (replicates1-3), single values (M. tuberculosis H37Rv [2]; drug conc. 0.39): 340 RLU/50ul and 310 RLU/50ul (2×) and 220 RLU/50ul and 250 RLU/50ul and 320 RLU/50ul (3×) and 360 RLU/50ul
- RLU/ml (×100) (M. tuberculosis H37Rv [2]; drug conc. 0.39): 61.1 RLU/ml (×100)
- RLU/50ul (average) (M. tuberculosis H37Rv [2]; [6]): 263 RLU/50ul and 317 RLU/50ul and 337 RLU/50ul
- RLU/50ul (replicates1-3), single values (M. tuberculosis H37Rv [2]; drug conc. 0.78): 120 RLU/50ul (3×) and 100 RLU/50ul and 130 RLU/50ul (2×) and 180 RLU/50ul and 150 RLU/50ul and 140 RLU/50ul
- RLU/ml (×100) (M. tuberculosis H37Rv [2]; drug conc. 0.78): 26.4 RLU/ml (×100)
- RLU/50ul (average) (M. tuberculosis H37Rv [2]; [7]): 143 RLU/50ul and 137 RLU/50ul and 117 RLU/50ul
- concentration with significant antitubercular effect (M. tuberculosis H37Rv [2]; luminescence-based assay): 0.78 µg/mL and 0.39 µg/mL
- Efficacy in BALB/C mouse model of pulmonary tuberculosis, Average (M. tuberculosis H37Rv [3]; Fig 4A, group dose 30, 6 mice): 4583
- reduction of bacterial load in lungs compared to drug-free group (M. tuberculosis H37Rv [3]; mouse, in vivo): similar
- granulomatous lesions in lung sections (HE staining) (M. tuberculosis H37Rv [3]; mouse, in vivo, po): limited number of small granulomatous lesions
- Efficacy in BALB/C mouse model of pulmonary tuberculosis, Average (M. tuberculosis H37Rv [4]): 226667
- CC50 (in vitro; L929): > 500 µg/mL
- CC50 (in vitro; Raw264.7): > 500 µg/mL

Compound: COC(=O)[C@@H]1CCC(=O)N1Cc1cc2ccc(OCc3ccccc3)cc2c2cc(OC)c(OC)cc12 [PP3S, Methyl (S)-1-{[3-(Benzyloxy)-6,7-dimethoxy-9-phenanthryl]methyl}-5-oxopyrrolidine-2-carboxylate]
- MIC (M. tuberculosis H37Ra): 1.6 µg/mL (≈ 3.2 µM)
- CC50 (in vitro; L929): > 500 µg/mL
- CC50 (in vitro; Raw264.7): > 500 µg/mL
